Test results reported in patent publication US10590143B2, “Herbicidally active (alkynyl-phenyl)-substituted cyclic dione compounds and derivatives thereof” (Syngenta Limited, priority 2013, dated 2020).
Read-outs that look alike come from different tables or passages of the source.

Key:
Test in all cases: Biological Example 1 glasshouse assay for herbicidal activity
Type in all cases: in vivo
[1] = test system: Abutilon theophrasti (ABUTH); settings: 312 h, 13 days after application, read-out: percentage phytotoxicity ABUTH
Description: (§1) Seeds of a variety of test plant species were sown in standard soil** in pots. After cultivation for one day (pre-emergence) or after 8 days cultivation (post-emergence) under controlled conditions in a glasshouse (at 24/16° C., day/night; 14 hours light; 65% humidity), the plants were sprayed with an aqueous spray solution derived from the formulation of the technical active ingredient (the test herbicide) in acetone/water (50:50) solution containing 0.5% Tween 20 (polyoxyethylene sorbitan monolaurate, CAS Reg. No. 9005-64-5). The test plants were then grown on under controlled conditions in a glasshouse (at 24/16° C., day/night; 14 hours light; 65% humidity) and watered twice daily. 13 Days after application of the test herbicide, for pre- and post-emergence, the test was evaluated visually for percentage phytotoxicity to each plant (where 100%=total damage to plant; 0%=no damage to plant). Generally, each test herbicide is only tested on 1 plant per plant species for each application rate tested and for each application timing. **The “standard soil” in Biological Example 1 is usually a “sand” or “sandy loam” type of soil.
(§2) Dicotyledonous weeds: ABUTH=Abutilon theophrasti; AMARE=Amaranthus retroflexus. Grassy monocotyledonous weeds: SETFA=Setaria faberi; ALOMY=Alopecurus myosuroides; ECHCG=Echinochloa crus-galli; ZEAMX=Zea mays (corn, maize, e.g. volunteer corn).

[2] = test system: Alopecurus myosuroides (ALOMY); settings: 312 h, 13 days after application, read-out: percentage phytotoxicity ALOMY
Description: as §1, §2

[3] = test system: Amaranthus retroflexus (AMARE); settings: Amaranthus retroflexus, 312 h, 13 days after application, read-out: percentage phytotoxicity AMARE
Description: as §1, §2

[4] = test system: Echinochloa crus-galli (ECHCG); settings: Echinochloa crus-galli, 312 h, 13 days after application, read-out: percentage phytotoxicity ECHCG
Description: as §1, §2

Setaria faberi (SETFA) = settings: 312 h, 13 days after application, read-out: percentage phytotoxicity SETFA
Description: as §1, §2

[5] = test system: Zea mays (ZEAMX, corn, maize, e.g. volunteer corn); settings: Zea mays, 312 h, 13 days after application, read-out: percentage phytotoxicity ZEAMX
Description: as §1, §2

For `CC#Cc1cc(F)c(C2C(=O)C3CCC(C3)C2=O)c(OCC)c1` (stereo not drawn) [Compound A4], the pest or weed control at 30 g/ha ([1]; post-emergence, post-emergence) was 10%, the pest or weed control at 250 g/ha ([1]; post-emergence, post-emergence) was 30% and the pest or weed control at 30 g/ha ([1]; pre-emergence, pre-emergence) was 20%. It also gave a pest or weed control at 250 g/ha ([1]; pre-emergence, pre-emergence) of 30%, a pest or weed control at 30 g/ha ([2]; post-emergence) of 80% and a pest or weed control at 250 g/ha ([2]; post-emergence) of 90%. It also gave a pest or weed control at 30 g/ha ([2]; pre-emergence) of 70%, a pest or weed control at 250 g/ha ([2]; pre-emergence) of 90% and a pest or weed control at 30 g/ha ([3]; post-emergence, post-emergence) of 20%. It also gave a pest or weed control at 250 g/ha ([3]; post-emergence, post-emergence) of 50%, a pest or weed control at 30 g/ha ([3]; pre-emergence, pre-emergence) of 40% and a pest or weed control at 250 g/ha ([3]; pre-emergence, pre-emergence) of 50%. The pest or weed control at 30 g/ha ([4]; post-emergence, post-emergence) was 90%, the pest or weed control at 250 g/ha ([4]; post-emergence, post-emergence) was 100% and the pest or weed control at 30 g/ha ([4]; pre-emergence, pre-emergence) was 90%. The pest or weed control at 250 g/ha ([4]; pre-emergence, pre-emergence) was 100%, the pest or weed control at 30 g/ha (Setaria faberi (SETFA); post-emergence, post-emergence) was 70% and the pest or weed control at 250 g/ha (Setaria faberi (SETFA); post-emergence, post-emergence) was 100%. The pest or weed control at 30 g/ha (Setaria faberi (SETFA); pre-emergence, pre-emergence) was 50%, the pest or weed control at 250 g/ha (Setaria faberi (SETFA); pre-emergence, pre-emergence) was 70% and the pest or weed control at 30 g/ha ([5]; post-emergence, post-emergence) was 100%. The pest or weed control at 250 g/ha ([5]; post-emergence, post-emergence) was 100%, the pest or weed control at 30 g/ha ([5]; pre-emergence, pre-emergence) was 80% and the pest or weed control at 250 g/ha ([5]; pre-emergence, pre-emergence) was 100%.

`CC#Cc1cc(F)c(C2C(=O)C3CCC(C)(C2=O)C3(C)C)c(OCC(F)(F)F)c1` (stereo not drawn) [Compound A9] gave a pest or weed control at 250 g/ha ([1]; post-emergence, post-emergence) of 0%, a pest or weed control at 250 g/ha ([2]; post-emergence) of 10% and a pest or weed control at 250 g/ha ([3]; post-emergence, post-emergence) of 0%. For the same compound, the pest or weed control at 250 g/ha ([4]; post-emergence, post-emergence) was 10%, the pest or weed control at 250 g/ha (Setaria faberi (SETFA); post-emergence, post-emergence) was 20% and the pest or weed control at 250 g/ha ([5]; post-emergence, post-emergence) was 20%.

With `CC#Cc1cc(F)c(C2C(=O)C3CCC(C)(C2=O)C3(C)C)c(OCCOC)c1` (stereo not drawn) [Compound A10] the pest or weed control at 250 g/ha ([1]; post-emergence, post-emergence) was 0%, the pest or weed control at 250 g/ha ([2]; post-emergence) was 0% and the pest or weed control at 250 g/ha ([3]; post-emergence, post-emergence) was 0%. For the same compound, the pest or weed control at 250 g/ha ([4]; post-emergence, post-emergence) was 0%, the pest or weed control at 250 g/ha (Setaria faberi (SETFA); post-emergence, post-emergence) was 0% and the pest or weed control at 250 g/ha ([5]; post-emergence, post-emergence) was 40%.

`C#Cc1cc(F)c(C2C(=O)C3CCC(C3)C2=O)c(OC)c1` (stereo not drawn) [Compound B1] gave a pest or weed control at 8 g/ha ([1]; post-emergence, post-emergence) of 50%, a pest or weed control at 30 g/ha ([1]; post-emergence, post-emergence) of 50% and a pest or weed control at 250 g/ha ([1]; post-emergence, post-emergence) of 70%. It also gave a pest or weed control at 8 g/ha ([1]; pre-emergence, pre-emergence) of 10%, a pest or weed control at 30 g/ha ([1]; pre-emergence, pre-emergence) of 20% and a pest or weed control at 250 g/ha ([1]; pre-emergence, pre-emergence) of 0%. The pest or weed control at 8 g/ha ([2]; post-emergence) was 0%, the pest or weed control at 30 g/ha ([2]; post-emergence) was 20% and the pest or weed control at 250 g/ha ([2]; post-emergence) was 80%. It also gave a pest or weed control at 8 g/ha ([2]; pre-emergence) of 0%, a pest or weed control at 30 g/ha ([2]; pre-emergence) of 10% and a pest or weed control at 250 g/ha ([2]; pre-emergence) of 90%. The pest or weed control at 8 g/ha ([3]; post-emergence, post-emergence) was 0%, the pest or weed control at 30 g/ha ([3]; post-emergence, post-emergence) was 0% and the pest or weed control at 250 g/ha ([3]; post-emergence, post-emergence) was 20%. The pest or weed control at 8 g/ha ([3]; pre-emergence, pre-emergence) was 30%, the pest or weed control at 30 g/ha ([3]; pre-emergence, pre-emergence) was 50% and the pest or weed control at 250 g/ha ([3]; pre-emergence, pre-emergence) was 30%. For the same compound, the pest or weed control at 8 g/ha ([4]; post-emergence, post-emergence) was 20%, the pest or weed control at 30 g/ha ([4]; post-emergence, post-emergence) was 70% and the pest or weed control at 250 g/ha ([4]; post-emergence, post-emergence) was 100%. For the same compound, the pest or weed control at 8 g/ha ([4]; pre-emergence, pre-emergence) was 50%, the pest or weed control at 30 g/ha ([4]; pre-emergence, pre-emergence) was 50% and the pest or weed control at 250 g/ha ([4]; pre-emergence, pre-emergence) was 90%. For the same compound, the pest or weed control at 8 g/ha (Setaria faberi (SETFA); post-emergence, post-emergence) was 70%, the pest or weed control at 30 g/ha (Setaria faberi (SETFA); post-emergence, post-emergence) was 70% and the pest or weed control at 250 g/ha (Setaria faberi (SETFA); post-emergence, post-emergence) was 90%. For the same compound, the pest or weed control at 8 g/ha (Setaria faberi (SETFA); pre-emergence, pre-emergence) was 40%, the pest or weed control at 30 g/ha (Setaria faberi (SETFA); pre-emergence, pre-emergence) was 60% and the pest or weed control at 250 g/ha (Setaria faberi (SETFA); pre-emergence, pre-emergence) was 100%. For the same compound, the pest or weed control at 8 g/ha ([5]; post-emergence, post-emergence) was 80%, the pest or weed control at 30 g/ha ([5]; post-emergence, post-emergence) was 90% and the pest or weed control at 250 g/ha ([5]; post-emergence, post-emergence) was 100%. For the same compound, the pest or weed control at 8 g/ha ([5]; pre-emergence, pre-emergence) was 0%, the pest or weed control at 30 g/ha ([5]; pre-emergence, pre-emergence) was 70% and the pest or weed control at 250 g/ha ([5]; pre-emergence, pre-emergence) was 100%.

For `CC#Cc1cc(F)c(C2=C(OC(=O)OCC)C3CCC(C3)C2=O)c(OC)c1` (stereo not drawn) [Compound P2], the pest or weed control at 8 g/ha ([1]; post-emergence, post-emergence) was 10%, the pest or weed control at 30 g/ha ([1]; post-emergence, post-emergence) was 30% and the pest or weed control at 250 g/ha ([1]; post-emergence, post-emergence) was 80%. The pest or weed control at 30 g/ha ([1]; pre-emergence, pre-emergence) was 20%, the pest or weed control at 250 g/ha ([1]; pre-emergence, pre-emergence) was 60% and the pest or weed control at 8 g/ha ([2]; post-emergence) was 70%. For the same compound, the pest or weed control at 30 g/ha ([2]; post-emergence) was 90%, the pest or weed control at 250 g/ha ([2]; post-emergence) was 90% and the pest or weed control at 30 g/ha ([2]; pre-emergence) was 80%. It also gave a pest or weed control at 250 g/ha ([2]; pre-emergence) of 100%, a pest or weed control at 8 g/ha ([3]; post-emergence, post-emergence) of 20% and a pest or weed control at 30 g/ha ([3]; post-emergence, post-emergence) of 20%. It also gave a pest or weed control at 250 g/ha ([3]; post-emergence, post-emergence) of 40%, a pest or weed control at 30 g/ha ([3]; pre-emergence, pre-emergence) of 40% and a pest or weed control at 250 g/ha ([3]; pre-emergence, pre-emergence) of 70%. It also gave a pest or weed control at 8 g/ha ([4]; post-emergence, post-emergence) of 90%, a pest or weed control at 30 g/ha ([4]; post-emergence, post-emergence) of 100% and a pest or weed control at 250 g/ha ([4]; post-emergence, post-emergence) of 100%. It also gave a pest or weed control at 30 g/ha ([4]; pre-emergence, pre-emergence) of 80%, a pest or weed control at 250 g/ha ([4]; pre-emergence, pre-emergence) of 100% and a pest or weed control at 8 g/ha (Setaria faberi (SETFA); post-emergence, post-emergence) of 60%. It also gave a pest or weed control at 30 g/ha (Setaria faberi (SETFA); post-emergence, post-emergence) of 90%, a pest or weed control at 250 g/ha (Setaria faberi (SETFA); post-emergence, post-emergence) of 100% and a pest or weed control at 30 g/ha (Setaria faberi (SETFA); pre-emergence, pre-emergence) of 50%. For the same compound, the pest or weed control at 250 g/ha (Setaria faberi (SETFA); pre-emergence, pre-emergence) was 90%, the pest or weed control at 8 g/ha ([5]; post-emergence, post-emergence) was 90% and the pest or weed control at 30 g/ha ([5]; post-emergence, post-emergence) was 100%. It also gave a pest or weed control at 250 g/ha ([5]; post-emergence, post-emergence) of 100%, a pest or weed control at 30 g/ha ([5]; pre-emergence, pre-emergence) of 90% and a pest or weed control at 250 g/ha ([5]; pre-emergence, pre-emergence) of 100%.
